Data reported in patent US20210002649A1, “COMPOSITIONS AND METHODS FOR TREATING CANCER” (Beth Israel Deaconess Medical Center, Inc., priority 2018, published 2021).
Where a SMILES comes first, the peptide text is derived from it. The star is where a group is joined. Cbz = O=C(OCc1ccccc1)*

Columns and labels:
[1] = test system: PD-L1 protein levels in WWP1 knock-out cells; assay: PD-L1 protein levels in WWP1 knock-out cells (gel image); format: cell-based; settings: MG132 treatment (FIG. 12)
WWP1 = molecular target: T1, WWP1 (Mus musculus, UniProt Q8BZZ3); assay: Active CD8 T cell tumor infiltration, syngenic mice model; format: in vivo
T1 construct: from tissue

[2] = test system: JAK-STAT, NF-kB, and TNFα pathway; assay: RNA-seq analysis of immune suppressive pathways in Hi-Myc mice; format: in vivo; settings: I3C treated Hi-Myc mice, versus vehicle (FIGS. 17-20)

T1 sequence (Q8BZZ3 whole entry): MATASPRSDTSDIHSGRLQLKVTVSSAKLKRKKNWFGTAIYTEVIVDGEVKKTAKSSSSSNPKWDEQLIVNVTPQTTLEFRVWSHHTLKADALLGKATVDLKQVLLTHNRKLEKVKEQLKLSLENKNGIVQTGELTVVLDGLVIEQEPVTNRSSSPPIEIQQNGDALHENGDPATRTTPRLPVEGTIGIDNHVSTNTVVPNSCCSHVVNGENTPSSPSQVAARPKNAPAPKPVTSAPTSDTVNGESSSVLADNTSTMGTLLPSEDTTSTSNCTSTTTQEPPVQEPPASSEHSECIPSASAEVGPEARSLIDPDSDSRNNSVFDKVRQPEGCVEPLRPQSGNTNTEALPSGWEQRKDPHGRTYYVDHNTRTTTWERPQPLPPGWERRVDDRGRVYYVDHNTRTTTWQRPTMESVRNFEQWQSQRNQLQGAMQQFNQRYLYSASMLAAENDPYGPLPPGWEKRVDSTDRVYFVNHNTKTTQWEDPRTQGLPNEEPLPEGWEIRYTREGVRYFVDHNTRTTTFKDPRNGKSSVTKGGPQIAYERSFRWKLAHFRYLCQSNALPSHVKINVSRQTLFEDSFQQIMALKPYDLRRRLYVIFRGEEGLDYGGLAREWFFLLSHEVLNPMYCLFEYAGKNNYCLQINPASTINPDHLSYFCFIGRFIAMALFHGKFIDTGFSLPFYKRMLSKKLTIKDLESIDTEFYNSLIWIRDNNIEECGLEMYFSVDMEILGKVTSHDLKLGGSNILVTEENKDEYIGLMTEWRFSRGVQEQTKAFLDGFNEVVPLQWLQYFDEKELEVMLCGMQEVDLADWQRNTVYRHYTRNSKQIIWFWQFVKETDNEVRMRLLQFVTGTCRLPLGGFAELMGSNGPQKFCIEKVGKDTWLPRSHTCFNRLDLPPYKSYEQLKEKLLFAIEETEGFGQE

SMILES | PD-L1 protein levels [1] | active CD8 T cell tumor infiltration (WWP1; syngenic mice (FIG. 16)) | tumor size (WWP1; tumors, after WWP1 inhibition by I3C) | immune suppressive pathways (RNA-seq) [2]
CC(C)C[C@@H](C=O)NC(=O)[C@H](CC(C)C)NC(=O)[C@H](CC(C)C)NC(=O)OCc1ccccc1 [MG132] (Cbz-Leu-Leu-Leu-aldehyde) | restored PD-L1 protein levels |  |  | 
OCc1c[nH]c2ccccc12 [I3C, indole-3-carbinol] |  | triggers active CD8 T cell tumor infiltration | reducing tumor size | down-regulation of multiple immune suppressive pathway (JAK-STAT, NF-kB, and TNFα pathway)
